{"source": "patent US8597664B2", "about": "“Endogenous adjuvant molecules and uses thereof” (University of Massachusetts, priority 2003, dated 2013)", "key": {"[1]": {"test_system": "CD8 T cell (CTL) responses to particulate HIV gp120 antigen", "assay": "CTL priming after co-injection of adjuvant with gp120/latex beads (51Cr-release CTL assay)", "assay_type": "in vivo, Balb/c mice", "procedure": "Immunization of mice with antigen-polystyrene beads (2-10 μg) +/− cytosolic fractions and assays for the priming of CTL were performed as previously described ^16. Fractions from the GF-250 column were injected without further manipulation, while fractions from all other columns were dried and reconstituted to normal osmolarity before injection. Fractions from 1%-10% of liver cytosol were typically injected into mice. Pooled fractions without adjuvant activity were standardly used as negative controls. For in vitro stimulation, splenocytes from immunized mice were stimulated directly with 10^−8 M peptide (RGPGRAFVTL-SEQ ID NO: 1 or SIINFEKL-SEQ ID NO: 2) and were then assayed as previously described.^16\nEach four consecutive fractions (4 minutes) were pooled and tested for their ability to augment the priming of CD8 T cell responses when co-injected with particulate HIV gp120 antigen. After 14 days, splenocytes were harvested from the primed animals and were stimulated ex vivo with either antigen-transfected or peptide-pulsed syngeneic cells. The re-stimulated cells were then assayed for their ability to kill antigen-bearing target cells in a standard ^51Cr-release as say.^16\nTo further evaluate this point, highly purified uric acid was tested for adjuvant activity. Highly purified uric acid (50 μg), highly purified LMW fraction from a C18 column, or PBS as control were mixed with 5 μg gp120/latex beads in 100 μl of saline and injected into two Balb/c mice. CTL from these mice were assayed for killing of 15.12 (gp120-transfected 3T3) cells (filled triangles), or vector-transfected control 3T3 cells (open squares). Results from individual mice are presented (FIG. 3A-C, wherein % Lysis indicates the degree of cell killing and the E:T ratio indicates the ratio of Effector cell:Target cell, e.g., the ratio of cytotoxic T-cell: antigen positive target cell).\nTo determine more precisely the amount of uric acid necessary to provide an adjuvant effect in vivo, the amount of uric acid injected into mice was titrated from 2.5-40 μg (in 100 μl; from a concentration of 25-400 μg/ml) and adjuvant activity assayed as described in Example II above. […] This amount of uric acid is produced by about 2×10^6 UV-treated 3T3 cells (See FIG. 3J).\nTo further evaluate the activity of xanthine crystals, xanthine crystals were tested for adjuvant activity in experiments carried out similarly to those described in Example II above. Highly purified uric acid (500 μg), highly purified xanthine (500 μg), or PBS as control were mixed with 2 μg gp120/latex beads in 100 μl of saline and injected into two Balb/c mice. CTL from these mice were assayed for killing of 15.12 (gp120-transfected 3T3) cells (filled squares). Results from individual mice are presented (FIG. 6A-C), wherein % Lysis indicates the degree of cell killing and the E:T ratio indicates the ratio of Effector cell:Target cell, e.g., the ratio of cytotoxic T-cell:antigen presenting cell."}, "dendritic cells": {"test_system": "dendritic cells", "assay": "Expression of CD80 and CD86 on dendritic cells from TLR4+/+ or TLR4-/- mice", "assay_type": "cell-based, C57BL/6 (TLR4+/+) or C.C3H lps-d (TLR4-/-) mice", "details": "6 hours", "procedure": "(§1) Bone marrow was cultured for 7 days in media containing 10 u/ml of both GM-CSF and IL-4, as previously described.^24 Fresh media (50% volume) containing cytokines was added at the 4th day of culture. At day 7, floating cells were removed by aspiration after gentle rocking, and soluble or crystalline uric acid was added. Following a 6 hour incubation, the media was gently removed and replaced with PBS containing either 0.5% heparin (sigma) or 0.5 μM polyvinyl sulfate (100 KD, Sigma) in order to detach bound crystals. Following a 10 minute incubation, cells were gently removed by scraping, washed once in 50 ml of media and 3 times with 50 ml of PBS in order to dissolve any remaining crystals, and then stained and assayed by flow cytometry as previously described.^15 To quantify MSU crystal formation in culture, a parallel set of wells was prepared without dendritic cells, and the crystals harvested by centrifugation, washed with absolute alcohol and dissolved in 0.1N NaOH. The amount of uric acid in the solubilized precipitates was determined by measuring UV absorption at 292 nm against a set of standard uric acid/NaOH solutions.\nAs discussed in Example III, LPS has a stimulatory activity and is frequently a contaminant of reagents. Dendritic cells from the TLR4-null mice were examined to verify that LPS was not the source of the observed stimulatory activity."}, "EL4 cells": {"test_system": "EL4 cells", "assay": "Uric acid measurement in the cytosol of treated cells", "assay_type": "cell-based", "details": "25 μg/ml cycloheximide or 8 μM emetine, after 5 hours; untreated cells below limit of detection", "procedure": "EL4 cells (10^8) were resuspended in 5 ml of culture media and incubated at 37° C. for 5 hours after being treated for one hour with emetine^16 or cycloheximide or heat shocked for 20 minutes at 45° C. (see FIG. 3J). 3T3 cells grown in 15 cm dishes were either untreated or exposed to UV light for 5 minutes and incubated in 5 hours. The cells were suspended without washing and disrupted by nitrogen cavitation followed by centrifugation, as described.^16 The resulting supernatants were diluted with 0.1 M borate, and analyzed for uric acid content using a uric acid detection kit (Molecular Probes).\nEL4 cells were either heat shocked for 20 minutes at 45° C., incubated with 25 μg/ml cycloheximide, incubated with 8 μM emetine or untreated as control. 3T3 cells were either UV-irradiated or untreated as control. These treatments were previously shown by the instant inventors to increase adjuvant activity. The amount of uric acid in the cytosol of the treated cells was determined after 5 hours of incubation. […] An approximately 4-fold increase in uric acid was also observed when 3T3 cells were treated with UV (FIG. 3J)."}, "[2]": {"assay": "Toxicity observed in the Examples", "assay_type": "in vivo", "details": "as used in the Examples", "excerpt": "With respect to potential toxicity of the crystalline adjuvant, local reaction to injections or other morbidity of animals immunized with any adjuvant within the scope of the invention, e.g., a crystalline adjuvant, can be readily determined. With respect to the crystalline adjuvants of the present invention displaying characteristics similar to uric acid or xanthine, significant toxicity is not expected. […] Uric acid and xanthine are normal components of mammals and local administration should be relatively safe. Uric acid is effective when injected subcutaneously, which is an effective and well tolerated immunization protocol. Uric acid and xanthine thus have favorable characteristics for an adjuvant, and crystalline molecules having similar characteristics, such as those described herein, are also expected to behave favorably as immune adjuvants."}, "[3]": {"test_system": "bone marrow-derived dendritic cells (CD11c+)", "assay": "Expression of CD80 and CD86 on bone marrow-derived dendritic cells by flow cytometry", "assay_type": "cell-based, Balb/c mice", "procedure": "as §1\nAccordingly, the effect of uric acid on expression of costimulators on cultured dendritic cells was tested. Uric acid was added to cultures of primary bone-marrow derived dendritic cells. Specifically, bone marrow-derived dendritic cells from Balb/c mice in 6 well plates were untreated (thin continuous line) or incubated with 20 μl of pre-formed MSU crystals (about 1.2 mg/ml final concentration) for 6 hours (heavy dashed lines) or 24 hours (heavy continuous lines). The expression of CD80 and CD86 on CD11c+ cells was then analyzed by flow cytometry.\nBased upon the results set forth in Examples I-VI which identify MSU crystals as having adjuvant activity, it was concluded that other crystals with similar properties should display djuvant activity. […] The expression of CD86 on CD11c+ cells was then analyzed by flow cytometry."}, "[4]": {"assay": "Precipitation of uric acid to MSU crystals", "assay_type": "physicochemical", "details": "uric acid 70 μg/ml", "procedure": "as §1\nAs discussed in Example III, LPS has a stimulatory activity and is frequently a contaminant of reagents. Dendritic cells from the TLR4-null mice were examined to verify that LPS was not the source of the observed stimulatory activity. […]"}, "[5]": {"test_system": "CD8 T cell (CTL) responses to particulate HIV gp120 antigen", "assay": "CTL priming after co-injection with antigen in LPS-nonresponsive TLR4 null mice", "assay_type": "in vivo, C.C3H lps-d (TLR4-/-) mice", "details": "injected together with antigen", "procedure": "Lipopolysaccharide (LPS) has potent immunostimulatory activity and is a frequent contaminant of buffers and other reagents. Although every attempt was made to avoid contamination of preparations with endotoxin, it was important to exclude the possibility that LPS was present in the LMW fraction and responsible for the adjuvant activity. Accordingly, similar experiments to those of Example II were carried out except that purified LMW fraction or commercially-obtained highly purified uric acid was injected together with antigen into toll-like receptor 4 (TLR4) null mice, which are nonresponsive to LPS. Specifically, congenic C.C3H lps-d (TLR4−/−) mice were used in place of Balb/c (TLR4+/+) mice."}, "[6]": {"details": "reported (ref. 18); cited from earlier work"}}}
{"smiles": "O=c1[nH]c(=O)c2[nH]c([O-])nc2[nH]1.[Na+]", "note": "[MSU crystals, monosodium urate]", "values": [{"measurement": "activity of preformed crystals injected in vivo", "setting": "[1]; preformed MSU crystals", "result": "active"}, {"measurement": "stimulatory effect on dendritic cells from TLR4-null mice", "setting": "dendritic cells; C.C3H lps-d (TLR4-/-) cells", "result": "the stimulatory effect was also found"}, {"measurement": "stimulatory effect on dendritic cells (CD80, CD86) compared with LPS", "setting": "dendritic cells; MSU crystals about 1.2 mg/ml versus 1 μg/ml LPS", "result": "stronger than that induced by high concentrations of LPS"}, {"measurement": "stimulation of dendritic cells in vitro, preformed crystals versus soluble uric acid", "setting": "dendritic cells; preformed MSU crystals about 1.2 mg/ml, soluble uric acid 70 μg/ml", "result": "highly stimulatory"}]}
{"smiles": "C[C@@H]1C[C@@H]([C@H](O)CC2CC(=O)NC(=O)C2)C(=O)[C@@H](C)C1", "note": "[cycloheximide]", "values": [{"measurement": "uric acid in the cytosol of treated EL4 cells", "setting": "EL4 cells", "result": "increased dramatically"}]}
{"smiles": "CC[C@H]1CN2CCc3cc(OC)c(OC)cc3[C@@H]2C[C@@H]1C[C@H]1NCCc2cc(OC)c(OC)cc21", "note": "[emetine]", "values": [{"measurement": "uric acid in the cytosol of treated EL4 cells", "setting": "EL4 cells", "result": "increased dramatically"}]}
{"smiles": "O=c1[nH]c(=O)c2[nH]c(=O)[nH]c2[nH]1", "note": "[uric acid]", "values": [{"measurement": "CTL priming", "setting": "[1]; 50 μg uric acid mixed with 5 μg gp120/latex beads in 100 μl saline", "result": "enhanced CTL priming to a similar degree as the purified LMW fraction"}, {"measurement": "adjuvant effect", "setting": "[1]; 10-50 μg of uric acid in 100 μl", "result": "strong adjuvant effect"}, {"measurement": "amount of uric acid providing an adjuvant effect when injected in vivo", "setting": "[1]; titrated from 2.5-40 μg in 100 μl", "result": "about 10 μg"}, {"measurement": "concentration of uric acid providing an adjuvant effect when injected in vivo", "setting": "[1]; titrated from 25-400 μg/ml, 100 μl injected", "result": "~100", "unit": "µg/mL"}, {"measurement": "toxicity", "setting": "[2]", "result": "have not been observed"}, {"measurement": "expression of CD86 on CD11c+ dendritic cells", "setting": "[3]; 20 μl pre-formed MSU crystals (about 1.2 mg/ml final), 6 or 24 hours", "result": "markedly and rapidly"}, {"measurement": "correlation of dendritic cell activation (CD86) with crystal formation", "setting": "[3]; uric acid titrated in culture, 24 hours", "result": "stimulated at precisely the concentrations of uric acid that led to crystal formation"}, {"measurement": "crystal precipitation in dendritic cell culture", "setting": "[4]", "result": "crystals do not precipitate within 6 hours"}, {"measurement": "adjuvant activity in LPS-nonresponsive mice", "setting": "[5]", "result": "had adjuvant activity"}, {"measurement": "concentration at which uric acid precipitates in vivo", "setting": "[6]", "result": "> 70", "unit": "µg/mL"}]}
{"smiles": "O=c1[nH]c(=O)c2[nH]cnc2[nH]1", "note": "[xanthine]", "values": [{"measurement": "CTL priming", "setting": "[1]; 500 μg crystals mixed with 2 μg gp120/latex beads in 100 μl saline", "result": "enhanced CTL priming to a similar degree as the MSU crystals"}, {"measurement": "toxicity", "setting": "[2]", "result": "have not been observed"}, {"measurement": "expression of CD86 on CD11c+ dendritic cells", "setting": "[3]; pre-formed crystals at 300 μg/ml final concentration, 6 hours", "result": "increase their expression of CD86 markedly"}]}
